From PubChem BioAssay AID248 (DTP/NCI, 2004)
Values joined by “and” are separate entries in the source; they are usually repeats but may differ in a detail not shown here. Equal entries are not always repeated. Toxic doses and inconclusive results are not listed. No stated cut-off is given here; in the data, active means T/C of 150% or more; inactive means T/C below 125%.

Tested on: L1210 leukemia ip in BDF1 mice, survival T/C
Test: NCI In Vivo Anticancer Drug Screen. Data for tumor model L1210 Leukemia (intraperitoneal) in B6D2F1 (BDF1) mice
Settings: endpoint: mean survival time, higher = longer survival
How it was run: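 Ratio derived from survival: compound-dosed mice over vehicle-dosed mice, all bearing a transplantable tumor.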

[1] = dose: 100.0 mg/kg/injection, schedule: Q01DX009 (ip), vehicle: saline with Tween-80
[2] = dose: 100.0 mg/kg/injection, schedule: Q04DX003 (ip), vehicle: saline with Tween-80
[3] = dose: 200.0 mg/kg/injection, schedule: Q01DX009 (ip), vehicle: saline with Tween-80
[4] = dose: 200.0 mg/kg/injection, schedule: Q04DX003 (ip), vehicle: saline with Tween-80
[5] = dose: 400.0 mg/kg/injection, schedule: Q04DX003 (ip), vehicle: saline with Tween-80
[6] = dose: 75.0 mg/kg/injection, schedule: Q01DX001 (ip), vehicle: carboxymethylcellulose (CMC)
[7] = dose: 50.0 mg/kg/injection, schedule: Q01DX009 (ip), vehicle: saline with Tween-80
[8] = dose: 100.0 mg/kg/injection, schedule: Q01DX001 (ip), vehicle: saline
[9] = dose: 200.0 mg/kg/injection, schedule: Q01DX001 (ip), vehicle: saline
[10] = dose: 400.0 mg/kg/injection, schedule: Q01DX001 (ip), vehicle: saline
[11] = dose: 50.0 mg/kg/injection, schedule: Q01DX009 (ip), vehicle: Klucel (hydroxypropylcellulose) (HPC)
[12] = dose: 100.0 mg/kg/injection, schedule: Q01DX009 (ip), vehicle: Klucel (hydroxypropylcellulose) (HPC)
[13] = dose: 400.0 mg/kg/injection, schedule: Q01DX009 (ip), vehicle: Klucel (hydroxypropylcellulose) (HPC)
[14] = dose: 200.0 mg/kg/injection, schedule: Q01DX009 (ip), vehicle: Klucel (hydroxypropylcellulose) (HPC)

Measured: T/C

Cc1cccnc1NS(=O)(=O)c1ccccc1
inactive: [1] 101 % of control | [2] 94 % of control | [3] 98 % of control | [4] 94 % of control | dose: 400.0 mg/kg/injection, schedule: Q01DX009 (ip), vehicle: saline with Tween-80 102 % of control | [5] 94 % of control

CCCCC(CCCC)NCCO
inactive: [6] 98 % of control | dose: 150.0 mg/kg/injection, schedule: Q01DX001 (ip), vehicle: carboxymethylcellulose (CMC) 96 % of control

Cc1nc(N)c(Cl)nc1C
inactive: [7] 96 % of control | [1] 100 % of control and 104 % of control | [2] 102 % of control | [3] 97 % of control and 98 % of control | [4] 96 % of control | [5] 88 % of control

O=[N+]([O-])c1cc2c(cc1Br)C1C(C3C2C(Cl)(Cl)C(Cl)=C(Cl)C3(Cl)Cl)C(Cl)(Cl)C(Cl)=C(Cl)C1(Cl)Cl (stereo not given)
inactive: [8] 95 % of control | [9] 100 % of control | [10] 94 % of control

[O-]c1nn(-c2ccccc2)c2cccc[n+]12
inactive: dose: 75.0 mg/kg/injection, schedule: Q01DX001 (ip), vehicle: saline 111 % of control

O=P(c1ccco1)(c1ccco1)c1ccco1
inactive: dose: 25.0 mg/kg/injection, schedule: Q04DX003 (ip), vehicle: saline with Tween-80 101 % of control | dose: 50.0 mg/kg/injection, schedule: Q04DX003 (ip), vehicle: saline with Tween-80 95 % of control

CC(=O)N(C)c1cc2c3c(c1)CCCN3CCC2
inactive: [11] 104 % of control | [12] 98 % of control

CCOP(=O)(OCC)N1CC1c1ccccc1 (stereo not given)
inactive: [6] 114 % of control

CC1CCC2CON(C(C)(C)C)C2C1 (stereo not given)
inactive: [7] 106 % of control | [1] 107 % of control | [2] 103 % of control | [4] 97 % of control and 101 % of control | [5] 94 % of control

COc1ccccc1NC(=O)c1ccccc1
inactive: [12] 89 % of control | [13] 95 % of control

O=C1c2cc3c(cc2CCC1c1ccc2c(c1)OCO2)OCO3 (stereo not given)
inactive: dose: 40.0 mg/kg/injection, schedule: Q01DX009 (ip), vehicle: saline with Tween-80 88 % of control | dose: 80.0 mg/kg/injection, schedule: Q01DX009 (ip), vehicle: saline with Tween-80 88 % of control | dose: 120.0 mg/kg/injection, schedule: Q01DX009 (ip), vehicle: saline with Tween-80 94 % of control | dose: 240.0 mg/kg/injection, schedule: Q01DX009 (ip), vehicle: saline with Tween-80 94 % of control | dose: 240.0 mg/kg/injection, schedule: Q01DX009 (ip), vehicle: saline 93 % of control | dose: 360.0 mg/kg/injection, schedule: Q01DX009 (ip), vehicle: saline with Tween-80 96 % of control | dose: 360.0 mg/kg/injection, schedule: Q01DX009 (ip), vehicle: saline 96 % of control | dose: 545.0 mg/kg/injection, schedule: Q01DX009 (ip), vehicle: saline 91 % of control

O=C(CCCCCCCCC(=O)Nc1cccc(C2=NCCN2)c1)Nc1cccc(C2=NCCN2)c1
inactive: dose: 2.5 mg/kg/injection, schedule: Q01DX Z (ip), vehicle: saline 95 % of control | dose: 5.0 mg/kg/injection, schedule: Q01DX Z (ip), vehicle: saline 91 % of control | dose: 10.0 mg/kg/injection, schedule: Q01DX Z (ip), vehicle: saline 91 % of control

CSc1ccc(NC(=O)/C=C/c2ccccc2)cc1
inactive: [12] 106 % of control | [14] 112 % of control | [13] 102 % of control

CCOC(=O)/C(N=O)=C(\O)c1ccc2ccccc2n1
inactive: dose: 25.0 mg/kg/injection, schedule: Q01DX009 (ip), vehicle: water 115 % of control | dose: 50.0 mg/kg/injection, schedule: Q01DX009 (ip), vehicle: water 101 % of control | dose: 100.0 mg/kg/injection, schedule: Q01DX009 (ip), vehicle: water 108 % of control | dose: 200.0 mg/kg/injection, schedule: Q01DX009 (ip), vehicle: water 89 % of control | dose: 400.0 mg/kg/injection, schedule: Q01DX009 (ip), vehicle: water 94 % of control

COc1ccc(Cl)cc1NC(=O)c1ccc(C(=O)Nc2cc(Cl)ccc2OC)cc1
inactive: [11] 109 % of control | [12] 90 % of control | [14] 86 % of control and 92 % of control | [13] 94 % of control

COC1(OC)C2(Cl)C3C4C5(OC(C)=O)C(=O)C3(OC(C)=O)C3C5C(Cl)(C41Cl)C32Cl (stereo not given)
inactive: [8] 100 % of control | [9] 96 % of control | [10] 96 % of control

Clc1ncnc2ccccc12
inactive: dose: 100.0 mg/kg/injection, schedule: Q01DX001 (ip), vehicle: Klucel (hydroxypropylcellulose) (HPC) 94 % of control | dose: 200.0 mg/kg/injection, schedule: Q01DX001 (ip), vehicle: Klucel (hydroxypropylcellulose) (HPC) 95 % of control

O=C(O)c1c(Cl)ccc([N+](=O)[O-])c1Cl
inactive: dose: 100.0 mg/kg/injection, schedule: Q04DX003 (ip), vehicle: Klucel (hydroxypropylcellulose) (HPC) 88 % of control | dose: 200.0 mg/kg/injection, schedule: Q04DX003 (ip), vehicle: Klucel (hydroxypropylcellulose) (HPC) 95 % of control | dose: 400.0 mg/kg/injection, schedule: Q04DX003 (ip), vehicle: Klucel (hydroxypropylcellulose) (HPC) 92 % of control

CC(=O)Nc1ccc(S(=O)(=O)SC(Cl)(Cl)Cl)cc1
inactive: dose: 100.0 mg/kg/injection, schedule: Q01DX009 (ip), vehicle: gum acacia 99 % of control | dose: 200.0 mg/kg/injection, schedule: Q01DX009 (ip), vehicle: gum acacia 94 % of control | dose: 400.0 mg/kg/injection, schedule: Q01DX009 (ip), vehicle: gum acacia 99 % of control

CC(O)CC(=O)NN (stereo not given)
inactive: [8] 98 % of control | [9] 100 % of control | [10] 93 % of control

Cc1ccc2ccc3ccc(C)nc3c2n1
inactive: dose: 12.5 mg/kg/injection, schedule: Q04DX003 (ip), vehicle: Klucel (hydroxypropylcellulose) (HPC) 99 % of control | dose: 25.0 mg/kg/injection, schedule: Q04DX003 (ip), vehicle: Klucel (hydroxypropylcellulose) (HPC) 97 % of control | dose: 50.0 mg/kg/injection, schedule: Q04DX003 (ip), vehicle: Klucel (hydroxypropylcellulose) (HPC) 101 % of control

CC1(CCOCc2ccccc2)NC(=O)N(CCC#N)C1=O (stereo not given)
inactive: dose: 50.0 mg/kg/injection, schedule: Q01DX001 (ip), vehicle: carboxymethylcellulose (CMC) 102 % of control | dose: 100.0 mg/kg/injection, schedule: Q01DX001 (ip), vehicle: carboxymethylcellulose (CMC) 94 % of control | dose: 200.0 mg/kg/injection, schedule: Q01DX001 (ip), vehicle: carboxymethylcellulose (CMC) 94 % of control | dose: 400.0 mg/kg/injection, schedule: Q01DX001 (ip), vehicle: carboxymethylcellulose (CMC) 91 % of control

COc1cc(Br)c(CCBr)cc1OC
inactive: dose: 25.0 mg/kg/injection, schedule: Q01DX009 (ip), vehicle: Klucel (hydroxypropylcellulose) (HPC) 98 % of control | [11] 94 % of control | [12] 100 % of control | [2] 96 % of control | [4] 94 % of control | [5] 104 % of control
